Here are results for 21 compounds from patent US20230339970A1, “CASEIN KINASE 1 DELTA MODULATORS” (priority 2020, published 2023).

In assay [1] the target is T1, human recombinant GST cleaved CSNK1D (Homo sapiens, UniProt P48730).
T1 construct: GST (cleaved yes); purchased University of Dundee clone DU 19064
Briefly: Purified Enzyme Assay (ADP-Glo CSNK1D Kinase Assay). The format is biochemical. The settings on record: 2 nM CSNK1D; peptide substrate 150 μM; ATP 20 μM; 45 minutes at room temperature. In outline:
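Percent activity derived from ADP-Glo quantification of ADP produced. Reactions: compound dose-response with human recombinant GST-cleaved CSNK1D, ATP and substrate peptide PLSRTL-pS-VASLPGL, incubated 45 min at room temperature.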
Background: ADP-Glo turns the ADP formed in a reaction into a luminescent signal.

Another assay concerns the target T2, human CSNK1D (Homo sapiens, UniProt P48730).
T2 construct: expressed in transfected cells
In words: Whole Cell nBRET CSNK1D Binding Assay. The conditions noted are these: living CHO cells stably expressing human CSNK1D tagged with nanoluciferase; NanoBret tracer 130 nM; 2 hours at 37 C.

T2 sequence (P48730 whole entry): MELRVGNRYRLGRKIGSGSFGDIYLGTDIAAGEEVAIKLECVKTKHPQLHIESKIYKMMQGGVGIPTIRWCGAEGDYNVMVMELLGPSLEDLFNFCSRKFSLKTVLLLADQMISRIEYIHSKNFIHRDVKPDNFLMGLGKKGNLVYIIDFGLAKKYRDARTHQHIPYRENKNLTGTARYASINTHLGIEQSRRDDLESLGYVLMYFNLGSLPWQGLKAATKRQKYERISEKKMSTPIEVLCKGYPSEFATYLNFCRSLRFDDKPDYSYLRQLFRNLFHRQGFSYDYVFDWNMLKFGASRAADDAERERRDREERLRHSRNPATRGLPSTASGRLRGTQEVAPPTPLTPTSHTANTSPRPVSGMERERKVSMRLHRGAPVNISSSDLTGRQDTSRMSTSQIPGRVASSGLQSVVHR
T1 sequence (P48730 whole entry): as above

In the case of `CCn1ncc2cc(-c3c(-c4ccc(F)cn4)nn4c3CCC4)cnc21` [Example 223, 1-Ethyl-5-(2-(5-fluoropyridin-2-yl)-5,6-dihydro-4H-pyrrolo[1,2-b]pyrazol-3-yl)-1H-pyrazolo[3,4-b]pyridine], the IC50 in assay [1] stood at 22 nM; at human CSNK1D it was 894 nM.
Consider `Cc1nc2[nH]nc(Cl)c2c(-c2c(-c3ccc(F)cn3)nn3c2CCC3)c1F` [Example 224, 3-Chloro-5-fluoro-4-(2-(5-fluoropyridin-2-yl)-5,6-dihydro-4H-pyrrolo[1,2-b]pyrazol-3-yl)-6-methyl-1H-pyrazolo[3,4-b]pyridine], for which the IC50 in assay [1] stood at 4 nM; on human CSNK1D, 5 nM.
In the same order, the values of `Cc1nc(-c2c(-c3ccc(F)cc3)nn3c2CCC3)c2cn[nH]c2n1` [Example 225, 4-[2-(4-Fluorophenyl)-5,6-dihydro-4H-pyrrolo[1,2-b]pyrazol-3-yl]-6-methyl-1H-pyrazolo[3,4-d]pyrimidine] are 8 nM and 88 nM.
In the same order, the values of `Fc1ccc(-c2nn3c(c2-c2ccn4nccc4c2)C[C@H](F)C3)cc1` [Example 226, 5-[(5S)-5-Fluoro-2-(4-fluorophenyl)-5,6-dihydro-4H-pyrrolo[1,2-b]pyrazol-3-yl]pyrazolo[1,5-a]pyridine] are 10 nM and 48 nM.
In the same order, the values of `Fc1ccc(-c2nn3c(c2-c2c(F)cnc4[nH]ncc24)C[C@H](F)C3)cc1` [Example 227, 5-Fluoro-4-[(5S)-5-fluoro-2-(4-fluorophenyl)-5,6-dihydro-4H-pyrrolo[1,2-b]pyrazol-3-yl]-1H-pyrazolo[3,4-b]pyridine] are 1 nM and 3 nM.
As to `Fc1ccc(-c2nn3c(c2-c2ccnc4[nH]ncc24)C[C@@H](F)C3)cc1` [Example 228, 4-[(5R)-5-Fluoro-2-(4-fluorophenyl)-5,6-dihydro-4H-pyrrolo[1,2-b]pyrazol-3-yl]-1H-pyrazolo[3,4-b]pyridine], the IC50 was 7 nM in assay [1] and 79 nM at human CSNK1D.
The corresponding values for `CC(=O)Nc1cc(-c2c(-c3ccc(F)cc3)nn3c2C[C@H](F)C3)ccn1` [Example 229, N-[4-[(5S)-5-Fluoro-2-(4-fluorophenyl)-5,6-dihydro-4H-pyrrolo[1,2-b]pyrazol-3-yl]-2-pyridyl]acetamide] are 1 nM and 2 nM.
In the same order, the values of `Fc1ccc(-c2nn3c(c2-c2ccnc4[nH]ncc24)CC(F)(F)C3)cc1` [Example 230, 4-[5,5-Difluoro-2-(4-fluorophenyl)-4,6-dihydropyrrolo[1,2-b]pyrazol-3-yl]-1H-pyrazolo[3,4-b]pyridine] are 5 nM and 74 nM.
The corresponding values for `CC1(C)Cc2c(-c3ccnc4[nH]ncc34)c(-c3ccc(F)cc3)nn2C1` [Example 231, 4-[2-(4-Fluorophenyl)-5,5-dimethyl-4,6-dihydropyrrolo[1,2-b]pyrazol-3-yl]-1H-pyrazolo[3,4-b]pyridine] are 1 nM and 4 nM.
`Cc1cc(-c2c(-c3ccc(F)cc3)nn3c2CC(C)(C)C3)c2cn[nH]c2n1` [Example 232, 4-[2-(4-Fluorophenyl)-5,5-dimethyl-4,6-dihydropyrrolo[1,2-b]pyrazol-3-yl]-6-methyl-1H-pyrazolo[3,4-b]pyridine]: the half-maximal inhibitory concentration (IC50) in assay [1] worked out at 1 nM; at human CSNK1D, 3 nM.
The corresponding values for `CC1(C)Cc2c(-c3ccnc4[nH]ccc34)c(-c3ccc(F)cn3)nn2C1` [Example 233, 4-[2-(5-Fluoro-2-pyridyl)-5,5-dimethyl-4,6-dihydropyrrolo[1,2-b]pyrazol-3-yl]-1H-pyrrolo[2,3-b]pyridine] are 2 nM and 7 nM.
`CC1(C)Cc2c(-c3ccnc4[nH]ncc34)c(-c3ccc(F)cn3)nn2C1` [Example 234, 4-[2-(5-Fluoro-2-pyridyl)-5,5-dimethyl-4,6-dihydropyrrolo[1,2-b]pyrazol-3-yl]-1H-pyrazolo[3,4-b]pyridine]: the figures for the IC50 (in assay [1]; on human CSNK1D) were 2 nM and 32 nM, respectively.
The corresponding values for `Cc1cc(-c2c(-c3ccc(F)cn3)nn3c2CC(C)(C)C3)c2cc[nH]c2n1` [Example 235, 4-[2-(5-Fluoro-2-pyridyl)-5,5-dimethyl-4,6-dihydropyrrolo[1,2-b]pyrazol-3-yl]-6-methyl-1H-pyrrolo[2,3-b]pyridine] are 1 nM and 8 nM.
For the compound `CC1(C)Cc2c(-c3c(F)cnc4[nH]ncc34)c(-c3ccc(F)cn3)nn2C1` [Example 236, 5-Fluoro-4-[2-(5-fluoro-2-pyridyl)-5,5-dimethyl-4,6-dihydropyrrolo[1,2-b]pyrazol-3-yl]-1H-pyrazolo[3,4-b]pyridine], the IC50 is 3 nM in assay [1] and 21 nM on human CSNK1D.
The corresponding values for `CC1(C)Cc2c(-c3ccnc4[nH]nc(Cl)c34)c(-c3ccc(F)cn3)nn2C1` [Example 237, 3-Chloro-4-(2-(5-fluoropyridin-2-yl)-5,5-dimethyl-5,6-dihydro-4H-pyrrolo[1,2-b]pyrazol-3-yl)-1H-pyrazolo[3,4-b]pyridine] are 4 nM and 13 nM.
On to `Cc1cc(-c2c(-c3ccc(F)cn3)nn3c2CC(C)(C)C3)c2cn[nH]c2n1` [Example 238, 4-[2-(5-Fluoro-2-pyridyl)-5,5-dimethyl-4,6-dihydropyrrolo[1,2-b]pyrazol-3-yl]-6-methyl-1H-pyrazolo[3,4-b]pyridine], for which the concentration for half-maximal inhibition (IC50) stood at 2 nM in assay [1] and 23 nM on human CSNK1D.
In the case of `CC1(C)Cc2c(-c3cc(C(F)F)nc4[nH]ncc34)c(-c3ccc(F)cn3)nn2C1` [Example 239, 6-(Difluoromethyl)-4-[2-(5-fluoro-2-pyridyl)-5,5-dimethyl-4,6-dihydropyrrolo[1,2-b]pyrazol-3-yl]-1H-pyrazolo[3,4-b]pyridine], the IC50 in assay [1] was 4 nM; on human CSNK1D, 115 nM.
Take `Cc1nc2[nH]ncc2c(-c2c(-c3ccc(F)cn3)nn3c2CC(C)(C)C3)c1F` [Example 240, 5-Fluoro-4-[2-(5-fluoro-2-pyridyl)-5,5-dimethyl-4,6-dihydropyrrolo[1,2-b]pyrazol-3-yl]-6-methyl-1H-pyrazolo[3,4-b]pyridine]: the IC50 in assay [1] worked out at 2 nM; at human CSNK1D, 19 nM.
For `[2H]C([2H])([2H])C1(C([2H])([2H])[2H])Cc2c(-c3ccnc4[nH]ncc34)c(-c3ccc(F)cc3)nn2C1` [Example 241, 4-[2-(4-Fluorophenyl)-5,5-bis(methyl-d3)-4,6-dihydropyrrolo[1,2-b]pyrazol-3-yl]-1H-pyrazolo[3,4-b]pyridine], the IC50 in assay [1] is 2 nM; on human CSNK1D it was 7 nM.
In the same order, the values of `[2H]C([2H])([2H])C1(C([2H])([2H])[2H])Cc2c(-c3cc(C)nc4[nH]ncc34)c(-c3ccc(F)cc3)nn2C1` [Example 242, 4-[2-(4-Fluorophenyl)-5,5-bis(methyl-d3)-4,6-dihydropyrrolo[1,2-b]pyrazol-3-yl]-6-methyl-1H-pyrazolo[3,4-b]pyridine] are 2 nM and 4 nM.
In the same order, the values of `[2H]C([2H])([2H])C1(C([2H])([2H])[2H])Cc2c(-c3c(F)cnc4[nH]ncc34)c(-c3ccc(F)cn3)nn2C1` [Example 243, 5-Fluoro-4-[2-(5-fluoro-2-pyridyl)-5,5-bis(methyl-d3)-4,6-dihydropyrrolo[1,2-b]pyrazol-3-yl]-1H-pyrazolo[3,4-b]pyridine] are 3 nM and 49 nM.

The term IC50 denotes the midpoint of a concentration-inhibition curve.
